Test results as given in ChEMBL document CHEMBL4376804, “Review of Transient Receptor Potential Canonical (TRPC5) Channel Modulators and Diseases” (J Med Chem, 2019).
One block for each compound: values may come before it.

Legend:
[1] = target: TRPC6; assay: Agonist activity at TRPC6 expressed in HEK293 cells coexpressing M5 receptor assessed as induction of TRPC6-mediated calcium influx by fluorescence method
[2] = Protein binding in C57BL/6 mouse plasma assessed as unbound fraction by liquid chromatography-tandem mass spectrometry; format: ADME, cell-free
[3] = Drug concentration in C57BL/6 mouse brain at 1 mg/kg, iv after 2 hrs by liquid chromatography-tandem mass spectrometry; format: ADME, organism-based; settings: read-out: Drug uptake
[4] = Drug concentration in C57BL/6 mouse plasma at 1 mg/kg, iv after 2 hrs by liquid chromatography-tandem mass spectrometry; format: ADME, organism-based; settings: in vivo
[5] = tested on: AGS; assay: Antitumor activity against human AGS cells xenografted in BALB/c mouse assessed as reduction in tumor growth at 200 mg/kg, ip BID administered for 2 consecutive weeks and measured every 3 days during compound dosing relative to control; format: functional; settings: 72 h, read-out: TGI
[6] = tested on: AGS; assay: Antitumor activity against human AGS cells xenografted in BALB/c mouse assessed as reduction in tumor growth at 100 mg/kg, ip BID administered for 2 consecutive weeks and measured every 3 days during compound dosing relative to control; format: functional; settings: 72 h, read-out: TGI
[7] = tested on: MKN-45; assay: Antiproliferative activity against human MKN45 cells by MTT assay; format: functional, cell-based
[8] = target: TRPC6; assay: Inhibition of TRPC6 expressed in HEK293 cells coexpressing M5 receptor assessed as reduction in TRPC6-mediated calcium influx by fluorescence method
[9] = tested on: AGS; assay: Antiproliferative activity against human AGS cells by MTT assay; format: functional, cell-based
[10] = target: T1, Short transient receptor potential channel 3 (Homo sapiens, UniProt Q13507); assay: Inhibition of YFP-tagged TRPC3 (unknown origin) expressed in HEK293 cells assessed as reduction carbhocol-induced receptor operated Calcium influx after 5 mins by fura-2-AM dye based assay; format: cell-based
T1 sequence (Q13507 whole entry): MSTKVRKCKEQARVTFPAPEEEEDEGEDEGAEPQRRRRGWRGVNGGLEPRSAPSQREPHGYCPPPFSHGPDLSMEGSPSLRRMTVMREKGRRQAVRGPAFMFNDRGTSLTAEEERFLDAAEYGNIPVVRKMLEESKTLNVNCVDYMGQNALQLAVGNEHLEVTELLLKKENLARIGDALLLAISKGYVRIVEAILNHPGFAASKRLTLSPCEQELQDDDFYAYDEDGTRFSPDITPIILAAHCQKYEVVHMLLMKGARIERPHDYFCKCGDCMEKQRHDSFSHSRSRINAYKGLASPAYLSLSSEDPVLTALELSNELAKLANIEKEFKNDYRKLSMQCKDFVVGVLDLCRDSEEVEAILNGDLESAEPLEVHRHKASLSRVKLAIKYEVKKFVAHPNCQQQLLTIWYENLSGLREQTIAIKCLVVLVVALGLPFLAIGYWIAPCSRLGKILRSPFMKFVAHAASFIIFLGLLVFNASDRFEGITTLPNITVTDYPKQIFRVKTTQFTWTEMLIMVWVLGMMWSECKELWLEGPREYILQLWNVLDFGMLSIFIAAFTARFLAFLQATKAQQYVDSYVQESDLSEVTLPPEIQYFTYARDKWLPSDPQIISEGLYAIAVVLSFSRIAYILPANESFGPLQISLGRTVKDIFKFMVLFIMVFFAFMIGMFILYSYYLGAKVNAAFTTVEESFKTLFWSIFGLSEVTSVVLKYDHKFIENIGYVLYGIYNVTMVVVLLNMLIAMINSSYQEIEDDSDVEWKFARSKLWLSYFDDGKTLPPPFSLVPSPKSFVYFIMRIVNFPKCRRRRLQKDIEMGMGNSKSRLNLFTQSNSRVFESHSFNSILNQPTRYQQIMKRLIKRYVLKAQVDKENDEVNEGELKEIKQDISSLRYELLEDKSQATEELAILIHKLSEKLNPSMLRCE

[11] = target: ORAI1/STIM1 (Rattus norvegicus, UniProt P84903+Q5M848); assay: Inhibition of ORAI/STIM1 in thapsigargin treated rat RBL2H3 cells assessed as reduction in store-operated calcium entry after 5 mins by fura-2-AM dye based assay; format: cell-based
[12] = target: T2, Short transient receptor potential channel 5 (Homo sapiens, UniProt Q9UL62); assay: Inhibition of TRPC5 (unknown origin)
T2 sequence (Q9UL62 whole entry): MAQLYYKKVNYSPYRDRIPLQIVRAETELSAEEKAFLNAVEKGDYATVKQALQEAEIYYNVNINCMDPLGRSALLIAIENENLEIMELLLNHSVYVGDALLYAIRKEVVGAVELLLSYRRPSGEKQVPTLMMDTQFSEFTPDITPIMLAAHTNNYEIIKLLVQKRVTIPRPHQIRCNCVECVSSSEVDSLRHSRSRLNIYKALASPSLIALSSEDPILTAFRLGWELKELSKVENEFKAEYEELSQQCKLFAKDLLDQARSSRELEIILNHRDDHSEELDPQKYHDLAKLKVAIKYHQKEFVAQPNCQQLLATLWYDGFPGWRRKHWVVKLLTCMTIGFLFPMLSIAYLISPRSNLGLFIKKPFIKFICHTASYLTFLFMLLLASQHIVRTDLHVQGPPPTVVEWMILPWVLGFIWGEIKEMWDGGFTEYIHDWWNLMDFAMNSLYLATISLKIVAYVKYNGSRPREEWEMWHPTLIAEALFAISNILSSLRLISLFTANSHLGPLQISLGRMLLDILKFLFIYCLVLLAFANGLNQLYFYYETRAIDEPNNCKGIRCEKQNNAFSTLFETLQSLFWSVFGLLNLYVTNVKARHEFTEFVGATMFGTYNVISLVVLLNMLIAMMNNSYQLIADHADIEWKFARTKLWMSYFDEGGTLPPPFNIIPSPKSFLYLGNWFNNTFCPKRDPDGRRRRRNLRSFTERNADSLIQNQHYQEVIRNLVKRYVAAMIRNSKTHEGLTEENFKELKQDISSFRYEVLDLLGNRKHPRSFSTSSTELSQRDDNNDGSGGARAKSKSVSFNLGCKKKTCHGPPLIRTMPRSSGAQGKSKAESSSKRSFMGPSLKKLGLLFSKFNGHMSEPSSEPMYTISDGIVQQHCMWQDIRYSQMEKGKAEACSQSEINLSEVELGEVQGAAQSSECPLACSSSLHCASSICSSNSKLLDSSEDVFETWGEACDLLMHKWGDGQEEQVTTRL

[13] = target: T3, Short transient receptor potential channel 4 (Homo sapiens, UniProt Q9UBN4); assay: Inhibition of human TRPC4 expressed in HEK293 cells assessed as reduction in sphingosine-1-phosphate-induced current at -100 mV by patch clamp assay; format: cell-based
T3 sequence (Q9UBN4 whole entry): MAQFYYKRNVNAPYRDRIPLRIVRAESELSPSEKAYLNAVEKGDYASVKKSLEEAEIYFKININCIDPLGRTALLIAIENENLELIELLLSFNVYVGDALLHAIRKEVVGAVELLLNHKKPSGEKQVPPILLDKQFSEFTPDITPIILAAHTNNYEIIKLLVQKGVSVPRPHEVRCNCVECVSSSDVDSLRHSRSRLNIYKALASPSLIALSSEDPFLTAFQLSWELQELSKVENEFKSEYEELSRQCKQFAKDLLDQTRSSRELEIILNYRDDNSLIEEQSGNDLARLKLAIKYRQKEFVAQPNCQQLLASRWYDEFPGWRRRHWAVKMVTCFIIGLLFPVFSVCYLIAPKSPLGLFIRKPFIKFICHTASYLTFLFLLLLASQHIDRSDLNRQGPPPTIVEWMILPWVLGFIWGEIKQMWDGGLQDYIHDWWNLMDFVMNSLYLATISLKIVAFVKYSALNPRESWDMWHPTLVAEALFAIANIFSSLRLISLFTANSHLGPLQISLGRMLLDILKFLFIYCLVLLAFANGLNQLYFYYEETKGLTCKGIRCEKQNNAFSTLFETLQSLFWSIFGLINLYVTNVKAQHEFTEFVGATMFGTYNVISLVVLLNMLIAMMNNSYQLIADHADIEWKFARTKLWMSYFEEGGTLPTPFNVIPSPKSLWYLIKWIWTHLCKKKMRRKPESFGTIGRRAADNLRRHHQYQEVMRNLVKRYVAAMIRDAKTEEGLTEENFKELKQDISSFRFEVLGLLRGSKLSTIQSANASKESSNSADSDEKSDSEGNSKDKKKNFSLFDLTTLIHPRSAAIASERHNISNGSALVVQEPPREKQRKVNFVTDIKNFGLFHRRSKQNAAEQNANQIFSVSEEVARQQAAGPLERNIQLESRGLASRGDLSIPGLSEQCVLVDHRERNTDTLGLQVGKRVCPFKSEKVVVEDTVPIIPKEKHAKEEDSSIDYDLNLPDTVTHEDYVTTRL

[14] = target: T3, Short transient receptor potential channel 4; assay: Inhibition of human TRPC4 expressed in HEK293 cells assessed as reduction in sphingosine-1-phosphate-induced current at +100 mV by patch clamp assay; format: cell-based
[15] = target: T3, Short transient receptor potential channel 4; assay: Inhibition of human TRPC4 expressed in HEK293 cells assessed as reduction in englerin A-induced calcium entry incubated for 30 mins by Fluo-4AM dye based fluorescence assay; format: cell-based
[16] = target: TRPC4/TRPC1 (Homo sapiens, UniProt P48995+Q9UBN4); assay: Inhibition of human TRPC4/human TRPC1 expressed in HEK293 cells assessed as reduction in englerin A-induced calcium entry incubated for 30 mins by Fluo-4AM dye based fluorescence assay; format: cell-based
[17] = target: TRPC1/TRPC5 (Homo sapiens, UniProt P48995+Q9UL62); assay: Inhibition of human TRPC5/human TRPC1 expressed in HEK293 cells assessed as reduction in englerin A-induced calcium entry incubated for 30 mins by Fluo-4AM dye based fluorescence assay; format: cell-based
[18] = target: T4, Short transient receptor potential channel 6 (Homo sapiens, UniProt Q9Y210); assay: Inhibition of human TRPC6 expressed in thapsigargin pretreated HEK293 cells assessed as reduction in GPCR-induced calcium entry by fluo-4/AM dye based assay; format: cell-based
T4 sequence (Q9Y210 whole entry): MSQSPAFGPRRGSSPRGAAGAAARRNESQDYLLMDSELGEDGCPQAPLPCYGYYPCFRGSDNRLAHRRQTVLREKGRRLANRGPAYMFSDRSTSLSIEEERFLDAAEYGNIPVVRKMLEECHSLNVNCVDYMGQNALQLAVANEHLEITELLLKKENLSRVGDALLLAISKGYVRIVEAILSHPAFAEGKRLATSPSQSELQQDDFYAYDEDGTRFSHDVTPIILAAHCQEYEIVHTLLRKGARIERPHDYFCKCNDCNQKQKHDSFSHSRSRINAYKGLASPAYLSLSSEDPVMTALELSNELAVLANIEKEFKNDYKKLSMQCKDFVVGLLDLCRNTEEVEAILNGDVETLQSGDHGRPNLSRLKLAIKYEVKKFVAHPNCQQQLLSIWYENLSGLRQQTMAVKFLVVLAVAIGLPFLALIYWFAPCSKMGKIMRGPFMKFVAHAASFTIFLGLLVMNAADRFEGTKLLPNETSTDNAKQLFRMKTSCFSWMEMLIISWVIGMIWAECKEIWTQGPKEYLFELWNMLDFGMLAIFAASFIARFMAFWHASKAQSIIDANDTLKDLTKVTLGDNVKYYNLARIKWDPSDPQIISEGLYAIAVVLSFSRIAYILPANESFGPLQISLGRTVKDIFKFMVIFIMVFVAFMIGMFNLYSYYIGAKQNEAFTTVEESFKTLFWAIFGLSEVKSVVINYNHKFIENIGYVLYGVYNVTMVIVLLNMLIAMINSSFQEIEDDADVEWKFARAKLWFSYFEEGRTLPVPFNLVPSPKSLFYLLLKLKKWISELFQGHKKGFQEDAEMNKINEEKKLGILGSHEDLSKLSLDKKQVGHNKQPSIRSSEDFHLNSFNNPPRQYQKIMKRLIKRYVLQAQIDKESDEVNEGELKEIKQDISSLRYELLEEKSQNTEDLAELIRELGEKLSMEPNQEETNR

[19] = Inhibition of ORAI (unknown origin) assessed as reduction in Ang2-induced NFAT translocation; set-up: species or system Homo sapiens
[20] = target: T1, Short transient receptor potential channel 3; assay: Inhibition of TRPC3 (unknown origin)

Sequence of ORAI1/STIM1 (P84903 whole entry): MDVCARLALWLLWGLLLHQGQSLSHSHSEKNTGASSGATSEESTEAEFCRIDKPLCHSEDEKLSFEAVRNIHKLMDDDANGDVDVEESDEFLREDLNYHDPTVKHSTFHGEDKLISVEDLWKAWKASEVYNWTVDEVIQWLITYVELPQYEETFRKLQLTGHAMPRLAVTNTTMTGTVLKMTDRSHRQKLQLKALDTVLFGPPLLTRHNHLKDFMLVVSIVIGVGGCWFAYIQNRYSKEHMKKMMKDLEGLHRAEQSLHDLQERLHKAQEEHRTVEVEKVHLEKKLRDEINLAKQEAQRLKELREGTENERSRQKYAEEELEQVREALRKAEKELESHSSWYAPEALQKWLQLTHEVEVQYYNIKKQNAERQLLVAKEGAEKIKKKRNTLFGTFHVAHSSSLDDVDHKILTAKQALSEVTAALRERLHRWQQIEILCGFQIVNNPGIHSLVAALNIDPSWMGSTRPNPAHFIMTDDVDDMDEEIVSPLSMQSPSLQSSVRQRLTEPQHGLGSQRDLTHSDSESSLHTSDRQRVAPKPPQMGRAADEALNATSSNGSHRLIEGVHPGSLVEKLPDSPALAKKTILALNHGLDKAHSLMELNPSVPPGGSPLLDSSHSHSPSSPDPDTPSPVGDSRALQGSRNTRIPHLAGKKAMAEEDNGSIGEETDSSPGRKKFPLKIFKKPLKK
Sequence of ORAI1/STIM1 (Q5M848 whole entry): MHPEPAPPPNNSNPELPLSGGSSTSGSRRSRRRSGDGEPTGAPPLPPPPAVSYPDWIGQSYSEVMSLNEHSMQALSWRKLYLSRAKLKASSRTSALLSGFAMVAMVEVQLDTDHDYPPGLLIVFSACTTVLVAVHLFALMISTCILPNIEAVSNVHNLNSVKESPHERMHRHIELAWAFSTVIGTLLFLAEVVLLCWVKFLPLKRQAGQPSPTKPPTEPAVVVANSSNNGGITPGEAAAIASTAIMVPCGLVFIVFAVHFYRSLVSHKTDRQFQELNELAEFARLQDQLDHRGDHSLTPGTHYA
Sequence of TRPC1/TRPC5 (P48995 whole entry, one chain of several): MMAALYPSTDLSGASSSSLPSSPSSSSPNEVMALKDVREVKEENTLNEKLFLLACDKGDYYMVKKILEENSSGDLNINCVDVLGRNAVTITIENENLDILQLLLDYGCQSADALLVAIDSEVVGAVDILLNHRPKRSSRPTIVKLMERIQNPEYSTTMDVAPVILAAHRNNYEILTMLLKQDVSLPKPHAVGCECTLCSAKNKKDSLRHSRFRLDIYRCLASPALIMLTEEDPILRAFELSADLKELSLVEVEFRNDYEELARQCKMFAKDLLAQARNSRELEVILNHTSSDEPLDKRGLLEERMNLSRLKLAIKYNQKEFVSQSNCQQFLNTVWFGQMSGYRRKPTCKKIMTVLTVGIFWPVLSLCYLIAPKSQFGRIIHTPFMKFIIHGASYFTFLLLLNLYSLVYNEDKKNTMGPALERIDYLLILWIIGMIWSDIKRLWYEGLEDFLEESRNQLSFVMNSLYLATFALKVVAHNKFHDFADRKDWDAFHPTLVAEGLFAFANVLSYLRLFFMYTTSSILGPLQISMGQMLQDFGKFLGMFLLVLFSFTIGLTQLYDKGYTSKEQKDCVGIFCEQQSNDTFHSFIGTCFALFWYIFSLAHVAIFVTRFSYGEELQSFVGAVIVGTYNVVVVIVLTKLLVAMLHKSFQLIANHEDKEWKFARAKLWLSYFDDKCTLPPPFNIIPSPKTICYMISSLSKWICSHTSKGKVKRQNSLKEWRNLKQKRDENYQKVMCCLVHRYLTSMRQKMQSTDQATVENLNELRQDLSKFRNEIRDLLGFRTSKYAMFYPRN
Sequence of TRPC4/TRPC1 (P48995 whole entry, one chain of several): as above

Compound: Cn1c(=O)n(CCCO)c(=O)c2c1nc(Oc1cccc(Cl)c1)n2Cc1ccc(Cl)cc1
Fu [2]: 0.4%
concentration at 2 h [3]: 339 nM
Cp [4]: 299 nmol/kg

Compound: Cn1c(=O)n(CCCO)c(=O)c2c1nc(Oc1cccc(OC(F)(F)F)c1)n2Cc1ccc(Cl)cc1 [ZERENCOTREP]
IC50 [13]: 0.012 nM
IC50 [14]: 0.03 nM
IC50 [15]: 0.34 nM
IC50 [16]: 0.033 nM
IC50 [17]: 0.19 nM

Compound: C=C[C@](C)(O)CC[C@H]1C(=C)C[C@H](O)[C@H]2C(C)(C)CCC[C@]12C
IC50 [18]: 1570 nM

Further lines, with some results ahead:

EC50 [1]: 4700 nM
Compound: CCOC(=O)N1CCC(c2cc(O)n3nc(C)c(-c4ccc(F)cc4)c3n2)CC1

IC50 [7]: 18500 nM
IC50 [8]: 1000 nM
IC50 [9]: 17100 nM
Compound: CCOC(=O)N1CCC(C)(c2cc(O)n3nc(C)c(-c4ccc(C(F)(F)F)cc4)c3n2)CC1
inhibition in vivo at 200 mg/kg [5]: 61.5%
inhibition in vivo at 100 mg/kg [6]: 38.5%

IC50 [10]: 4210 nM
IC50 [11]: 590 nM
IC50 [12]: 300 nM
Compound: Cc1nnsc1C(=O)Nc1ccc(-n2nc(C(F)(F)F)cc2C(F)(F)F)cc1

IC50 [19]: 50 nM
IC50 [20]: 700 nM
IC50 [10]: 540 nM
IC50 [11]: 540 nM
Compound: CCOC(=O)c1cnn(-c2ccc(NC(=O)C(Cl)=C(Cl)Cl)cc2)c1C(F)(F)F
